This is an account of results in patent publication US20140275063A1, “NEW ENZYME INHIBITOR COMPOUNDS” (PROXIMAGEN LIMITED, priority 2011, published 2014).

In general, IC50 refers to the concentration needed to halve the response being measured.

Structures can show the parent of a compound that is named as a salt.

For this test, the target named is T1, human SSAO (Homo sapiens, UniProt Q16853).
T1 construct: made in house
T1 sequence (Q16853 29-763 limits assumed): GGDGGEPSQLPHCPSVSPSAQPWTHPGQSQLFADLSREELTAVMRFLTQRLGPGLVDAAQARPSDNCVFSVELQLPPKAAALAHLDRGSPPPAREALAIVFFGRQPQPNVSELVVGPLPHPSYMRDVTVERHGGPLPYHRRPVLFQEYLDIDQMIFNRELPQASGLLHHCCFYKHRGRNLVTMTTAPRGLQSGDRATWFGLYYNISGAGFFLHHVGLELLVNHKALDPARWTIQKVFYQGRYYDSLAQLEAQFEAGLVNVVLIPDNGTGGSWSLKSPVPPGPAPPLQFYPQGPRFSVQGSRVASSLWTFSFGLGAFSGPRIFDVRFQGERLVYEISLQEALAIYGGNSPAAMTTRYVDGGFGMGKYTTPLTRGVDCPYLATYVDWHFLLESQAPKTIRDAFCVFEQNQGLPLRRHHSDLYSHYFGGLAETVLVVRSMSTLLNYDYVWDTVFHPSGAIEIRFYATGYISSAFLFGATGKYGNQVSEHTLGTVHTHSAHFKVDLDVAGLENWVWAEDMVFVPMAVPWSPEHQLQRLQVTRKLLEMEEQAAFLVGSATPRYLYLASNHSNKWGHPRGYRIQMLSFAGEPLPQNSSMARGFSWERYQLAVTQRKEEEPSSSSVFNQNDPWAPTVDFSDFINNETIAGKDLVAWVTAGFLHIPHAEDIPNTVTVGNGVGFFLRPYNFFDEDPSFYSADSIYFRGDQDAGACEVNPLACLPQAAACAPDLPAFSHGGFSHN
Nature of the test: SSAO inhibitory activity (HRP-coupled hydrogen peroxide detection or 14C-benzaldehyde detection, benzylamine substrate). It is filed as biochemical. The following applies: purified recombinantly expressed human SSAO, benzylamine as substrate, RT. The protocol: All primary assays were performed at RT. with purified recombinantly expressed human SSAO. Enzyme was prepared essentially as described in Öhman et al. (Protein Expression and Purification 46 (2006) 321-331). In addition, secondary- and selectivity assays were performed using SSAO prepared from various tissues or purified rat recombinant SSAO. The enzyme activity was assayed with benzylamine as substrate by measuring either benzaldehyde production, using ^14C-labeled substrate, or by utilizing the production of hydrogen peroxide in a horseradish peroxidase (HRP) coupled reaction. Briefly, test compounds were dissolved in dimethyl sulfoxide (DMSO) to a concentration of 10 mM. Dose-response measurements were assayed by either creating 1:10 serial dilutions in DMSO to produce a 7 point curve or by making 1:3 serial dilutions in DMSO to produce 11 point curves. The top concentrations were adjusted depending on the potency of the compounds and subsequent dilution in reaction buffer yielded a final DMSO concentration ≦2%.
In a horseradish peroxidase (HRP) coupled reaction, hydrogen peroxide oxidation of 10-acetyl-3,7-dihydroxyphenoxazine produced resorufin, which is a highly fluorescent compound (Zhout and Panchuk-Voloshina. Analytical Biochemistry 253 (1997) 169-174; Amplex® Red Hydrogen Peroxideperoxidase Assay kit, Invitrogen A22188). Enzyme and compounds in 50 mM sodium phosphate, pH 7.4 were set to pre-incubate in flat-bottomed microtiter plates for approximately 15 minutes before initiating the reaction by addition of a mixture of HRP, benzylamine and Amplex reagent. Benzylamine concentration was fixed at a concentration corresponding to the Michaelis constant, determined using standard procedures. Fluorescence intensity was then measured at several time points during 1-2 hours, exciting at 544 nm and reading the emission at 590 nm. For the human SSAO assay final concentrations of the reagents in the assay wells were: SSAO enzyme 1 μg/ml, benzylamine 100 μM, Amplex reagent 20 μM, HRP 0.1 U/mL and varying concentrations of test compound. The inhibition was measured as % decrease of the signal compared to a control without inhibitor (only diluted DMSO). The background signal from a sample containing no SSAO enzyme was subtracted from all data points. Data was fitted to a four parameter logistic model and IC50 values were calculated using the Graph Pad Prism 4 or XLfit 4 programs.
SSAO activity was assayed using 14C-labeled benzylamine and analysed by measuring radioactive benzaldehyde. In a white 96-well optiplate (Packard), 20 μL of diluted test compound was pre-incubated at RT. with 20 μL SSAO enzyme for approximately 15 minutes with continuous agitation. All dilutions were made with PBS. The reaction was initiated by adding 20 μL of the benzylamine substrate solution containing [7-14C] Benzylamine hydrochloride (CFA589, GE Healthcare). The plate was incubated for 1 hour as above after which the reaction was stopped by acidification (10 μL 1 M HCl). Then 90 μL Micro Scint-E solution (Perkin-Elmer) was added to each well and the plate was continuously mixed for 15 minutes. Phase separation occurred instantly and activity was read in a Topcount scintillation counter (Perkin-Elmer). In the final reaction well, the human recombinant SSAO concentration was 10 μg/ml. In order to optimize sensitivity, the substrate concentration was decreased as compared to the HRP coupled assay in order to get a higher fraction of radioactive product. In the human SSAO assay, benzylamine concentration was 40 μM (0.2 μCi/mL). Data was analysed as above.
For `Cc1ccc(-n2nc(N3CCOC(CNCCN)C3)c3ccncc32)cc1` (stereo not shown) [Compound 33, (2-Aminoethyl)({4-[1-(4-methylphenyl)-1H-pyrazolo[3,4-c]pyridin-3-yl]morpholin-2-yl}methyl)amine trihydrochloride], the 50% inhibitory concentration (IC50) was 100 to 500 nM.

For `Clc1ccc(-n2nc(N3CCOC(CN4CCNCC4)C3)c3ccncc32)cc1` (stereo not shown) [Compound 36, 4-[1-(4-Chlorophenyl)-1H-pyrazolo[3,4-c]pyridin-3-yl]-2-(piperazin-1-ylmethyl) morpholine trihydrochloride], the IC50 was below 100 nM.

In the case of `CC(C)N1CCC(NC(=O)N2CCC(c3cn(-c4ccc(Cl)cc4)c4cnccc34)CC2)CC1` [Compound 9, 4-[1-(4-Chlorophenyl)-1H-pyrrolo[2,3-c]pyridin-3-yl]-N-[1-(propan-2-yl)piperidin-4-yl] piperidine-1-carboxamide], the IC50 is below 100 nM. As to `CN1CCC(CCNC(=O)N2CCC(c3cn(-c4ccc(Cl)cc4)c4cnccc34)CC2)CC1` [Compound 24, 4-[1-(4-Chlorophenyl)-1H-pyrrolo[2,3-c]pyridin-3-yl]-N-[2-(1-methylpiperidin-4-yl)ethyl] piperidine-1-carboxamide], the IC50 was below 100 nM. For `O=C(NC1(c2nn[nH]n2)CCC1)N1CCC(c2cn(-c3ccc(Cl)cc3)c3cnccc23)CC1` [Compound 63, 4-[1-(4-Chlorophenyl)-1H-pyrrolo[2,3-c]pyridin-3-yl]-N-[1-(2H-1,2,3,4-tetrazol-5-yl)cyclobutyl]piperidine-1-carboxamide; trifluoroacetic acid], the IC50 is below 100 nM. As to `CN1CCN(C(=O)N2CCC(c3cn(-c4ccc(Cl)cc4)c4cnccc34)CC2)CC1` [Compound 5, 1-({4-[1-(4-Chlorophenyl)-1H-pyrrolo[2,3-c]pyridin-3-yl]piperidin-1-yl}carbonyl)-4-methylpiperazine], the IC50 is below 100 nM. Regarding `CC(C)N1CCN(C(=O)N2CCC(c3cn(-c4ccc(Cl)cc4)c4cnccc34)CC2)CC1` [Compound 17, 1-({4-[1-(4-Chlorophenyl)-1H-pyrrolo[2,3-c]pyridin-3-yl]piperidin-1-yl}carbonyl)-4-(propan-2-yl)piperazine], the half-maximal inhibitory concentration (IC50) is below 100 nM. On to `CN1CCN(CC2CN(c3nn(-c4ccc(Cl)cc4)c4cnccc34)CCO2)CC1` (stereo not shown) [Compound 35, 4-[1-(4-Chlorophenyl)-1H-pyrazolo[3,4-c]pyridin-3-yl]-2-[(4-methylpiperazin-1-yl)methyl]morpholine], for which the IC50 was 100 to 500 nM. Turning to `CNC(=O)NCC1CN(c2nn(-c3ccc(Cl)cc3)c3cnccc23)CCO1` (stereo not shown) [Compound 60, 1-({4-[1-(4-Chlorophenyl)-1H-pyrazolo[3,4-c]pyridin-3-yl]morpholin-2-yl}methyl)-3-methylurea], the 50% inhibitory concentration (IC50) is below 100 nM. For `Clc1ccc(-n2nc(N3CCC(CN4CCOCC4)CC3)c3ccncc32)cc1` [Compound 48, 4-({1-[1-(4-Chlorophenyl)-1H-pyrazolo[3,4-c]pyridin-3-yl]piperidin-4-yl}methyl) morpholine dihydrochloride], the IC50 is below 100 nM. For `CN1CCC(CNC(=O)C2CCCCN2c2nn(-c3ccc(Cl)cc3)c3cnccc23)CC1` (stereo not shown) [Compound 43, 1-[1-(4-Chlorophenyl)-1H-pyrazolo[3,4-c]pyridin-3-yl]-N-[(1-methylpiperidin-4-yl)methyl]piperidine-2-carboxamide], the IC50 is 100 to 500 nM. As to `CN(C)[C@H]1CCN(C(=O)CC2COCCN2c2nn(-c3ccc(Cl)cc3)c3cnccc23)C1` (stereo partly drawn) [Compound 56, 2-{4-[1-(4-Chlorophenyl)-1H-pyrazolo[3,4-c]pyridin-3-yl]morpholin-3-yl}-1-[(3S)-3-(dimethylamino)pyrrolidin-1-yl] ethan-1-one], the half-inhibitory concentration (IC50) is below 100 nM. Consider `O=C(O)CC1COCCN1c1nn(-c2ccc(Cl)cc2)c2cnccc12` (stereo not shown) [Compound 53, 2-{4-[1-(4-Chlorophenyl)-1H-pyrazolo[3,4-c]pyridin-3-yl]morpholin-3-yl}acetic acid hydrochloride], for which the IC50 was 500 to 2500 nM. To `CC(=O)NCCCNC(=O)N1CCC(c2cn(-c3ccc(Cl)cc3)c3cnccc23)CC1` [Compound 29, N-[3-({4-[1-(4-Chlorophenyl)-1H-pyrrolo[2,3-c]pyridin-3-yl]piperidin-1-yl}carbonylamino)propyl]acetamide] belongs below 100 nM. For `Cc1ccc(-n2nc(N3CCOC(CN4CCOCC4)C3)c3ccncc32)cc1` (stereo not shown) [Compound 34, 4-[1-(4-Methylphenyl)-1H-pyrazolo[3,4-c]pyridin-3-yl]-2-(morpholin-4-ylmethyl)morpholine], the IC50 lay within 100 to 500 nM. As to `CC(=O)N1CCC(NC(=O)N2CCC(c3cn(-c4ccc(Cl)cc4)c4cnccc34)CC2)CC1` [Compound 10, N-(1-Acetylpiperidin-4-yl)-4-[1-(4-chlorophenyl)-1H-pyrrolo [2,3-c]pyridin-3-yl]piperidine-1-carboxamide], the half-inhibitory concentration (IC50) is below 100 nM. `Cc1ccc(-n2nc(N3CCOC(COCCN)C3)c3ccncc32)cc1` (stereo not shown) [Compound 32, 2-({4-[1-(4-Methylphenyl)-1H-pyrazolo[3,4-c]pyridin-3-yl]morpholin-2-yl}methoxy)ethan-1-amine]: the IC50 fell in the range of 100 to 500 nM.

Take `Clc1ccc(-n2nc(N3CCC(CN4CCNCC4)CC3)c3ccncc32)cc1` [Compound 49, 1-({1-[1-(4-Chlorophenyl)-1H-pyrazolo[3,4-c]pyridin-3-yl]piperidin-4-yl}methyl)piperazine]: the IC50 lay within 100 to 500 nM. For `CN1CCC(CN(C)C(=O)N2CCC(c3cn(-c4ccc(Cl)cc4)c4cnccc34)CC2)CC1` [Compound 13, 4-[1-(4-Chlorophenyl)-1H-pyrrolo[2,3-c]pyridin-3-yl]-N-methyl-N-[(1-methylpiperidin-4-yl)methyl] piperidine-1-carboxamide; formic acid], the IC50 is below 100 nM. To `NCCCNC(=O)N1CCN(CC2CN(c3nn(-c4ccc(Cl)cc4)c4cnccc34)CCO2)CC1` (stereo not shown) [Compound 38, N-(3-Aminopropyl)-4-({4-[1-(4-chlorophenyl)-1H-pyrazolo[3,4-c]pyridin-3-yl]morpholin-2-yl}methyl)piperazine-1-carboxamide tri hydrochloride] belongs 100 to 500 nM; to `CN1CCC(CNC(=O)CC2COCCN2c2nn(-c3ccc(Cl)cc3)c3cnccc23)CC1` (stereo not shown) [Compound 58, 2-{4-[1-(4-Chlorophenyl)-1H-pyrazolo[3,4-c]pyridin-3-yl]morpholin-3-yl}-N-[(1-methylpiperidin-4-yl)methyl] acetamide], 100 to 500 nM; to `CN1CCC(CNC(=O)N2CCN(c3nn(-c4ccc(Cl)cc4)c4cnccc34)CC2)CC1` [Compound 51, 4-[1-(4-Chlorophenyl)-1H-pyrazolo[3,4-c]pyridin-3-yl]-N-[(1-methylpiperidin-4-yl)methyl]piperazine-1-carboxamide], below 100 nM.
